# From the kinase profiling compilation of Christmann-Franck et al. (2016)
# Assays:
# Assay in all cases: KINOMEscan competition binding
# Conditions in all cases: compound 10.0 µM
# CDC42BPB (human) = CDC42BPB (human) (UniProt Q9Y5S2)
# [1] = system: EGFR (human), P00533 [G719S]
# BLK (human) = BLK (human) (UniProt P51451)
# MAPK11 (human) = MAPK11 (human) (UniProt Q15759)
# RPS6KA3 KD1 (human) = RPS6KA3 KD1 (human) (UniProt P51812)
# MELK (human) = MELK (human) (UniProt Q14680)
# MAP2K4 (human) = MAP2K4 (human) (UniProt P45985)
# Chain of MAP2K4 (human) (P45985 whole entry, looked up): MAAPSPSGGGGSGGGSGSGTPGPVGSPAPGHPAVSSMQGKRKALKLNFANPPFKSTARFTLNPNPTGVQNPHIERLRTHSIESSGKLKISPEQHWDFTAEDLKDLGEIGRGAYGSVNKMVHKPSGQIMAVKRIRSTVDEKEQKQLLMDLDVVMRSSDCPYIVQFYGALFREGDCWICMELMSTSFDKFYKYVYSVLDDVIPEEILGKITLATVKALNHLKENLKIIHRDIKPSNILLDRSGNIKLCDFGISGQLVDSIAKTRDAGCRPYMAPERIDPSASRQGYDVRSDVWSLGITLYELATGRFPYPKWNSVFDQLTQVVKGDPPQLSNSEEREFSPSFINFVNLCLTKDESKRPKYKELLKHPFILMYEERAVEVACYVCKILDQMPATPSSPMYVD
# BTK (human) = BTK (human) (UniProt Q06187)
# Chain of BTK (human) (Q06187 whole entry, looked up): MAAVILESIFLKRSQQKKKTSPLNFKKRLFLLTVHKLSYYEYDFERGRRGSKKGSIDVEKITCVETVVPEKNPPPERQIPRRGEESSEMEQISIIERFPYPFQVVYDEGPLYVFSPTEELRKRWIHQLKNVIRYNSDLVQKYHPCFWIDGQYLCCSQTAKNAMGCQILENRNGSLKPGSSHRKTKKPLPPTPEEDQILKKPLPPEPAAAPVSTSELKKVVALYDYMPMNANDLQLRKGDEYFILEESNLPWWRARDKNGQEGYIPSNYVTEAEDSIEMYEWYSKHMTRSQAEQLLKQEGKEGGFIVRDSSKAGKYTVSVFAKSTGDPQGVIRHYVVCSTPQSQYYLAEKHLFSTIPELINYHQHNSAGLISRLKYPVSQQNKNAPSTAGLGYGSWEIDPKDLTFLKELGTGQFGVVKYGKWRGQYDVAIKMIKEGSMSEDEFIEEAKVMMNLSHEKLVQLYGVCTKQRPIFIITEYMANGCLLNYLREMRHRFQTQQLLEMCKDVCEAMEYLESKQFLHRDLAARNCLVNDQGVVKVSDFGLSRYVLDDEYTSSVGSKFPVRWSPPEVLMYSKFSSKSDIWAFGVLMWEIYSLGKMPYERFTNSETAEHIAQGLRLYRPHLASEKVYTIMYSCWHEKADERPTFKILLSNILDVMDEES
# CDC42BPA (human) = CDC42BPA (human) (UniProt Q5VT25)
# HIPK1 (human) = HIPK1 (human) (UniProt Q86Z02)
# [2] = system: EGFR (human), P00533 [746-750 del]
# FGFR2 (human) = FGFR2 (human) (UniProt P21802)
# EPHA6 (human) = EPHA6 (human) (UniProt Q9UF33)
# CLK3 (human) = CLK3 (human) (UniProt P49761)
# ACVR1 (human) = ACVR1 (human) (UniProt Q04771)
# Chain of ACVR1 (human) (Q04771 whole entry, looked up): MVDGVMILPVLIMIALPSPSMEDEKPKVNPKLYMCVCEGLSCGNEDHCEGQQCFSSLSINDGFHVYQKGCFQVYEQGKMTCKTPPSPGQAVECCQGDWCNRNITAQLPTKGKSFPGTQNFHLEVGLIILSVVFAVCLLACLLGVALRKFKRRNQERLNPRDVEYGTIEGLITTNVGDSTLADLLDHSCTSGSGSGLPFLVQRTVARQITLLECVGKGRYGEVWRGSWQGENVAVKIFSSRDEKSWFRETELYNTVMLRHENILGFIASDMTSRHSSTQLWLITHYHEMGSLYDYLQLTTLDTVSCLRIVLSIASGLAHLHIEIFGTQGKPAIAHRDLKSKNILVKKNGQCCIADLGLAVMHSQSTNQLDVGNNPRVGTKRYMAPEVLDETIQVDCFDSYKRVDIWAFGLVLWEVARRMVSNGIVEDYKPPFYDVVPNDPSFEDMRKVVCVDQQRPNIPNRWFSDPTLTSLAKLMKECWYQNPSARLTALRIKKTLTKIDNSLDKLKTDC
# SRPK3 (human) = SRPK3 (human) (UniProt Q9UPE1)
# NEK1 (human) = NEK1 (human) (UniProt Q96PY6)
# EPHB2 (human) = EPHB2 (human) (UniProt P29323)
# AURKA (human) = AURKA (human) (UniProt O14965)
# PRKCD (human) = PRKCD (human) (UniProt Q05655)
# CDK8 (human) = CDK8 (human) (UniProt P49336)
# ABL2 (human) = ABL2 (human) (UniProt P42684)
# CDK18 (human) = CDK18 (human) (UniProt Q07002)
# Chain of CDK18 (human) (Q07002 whole entry, looked up): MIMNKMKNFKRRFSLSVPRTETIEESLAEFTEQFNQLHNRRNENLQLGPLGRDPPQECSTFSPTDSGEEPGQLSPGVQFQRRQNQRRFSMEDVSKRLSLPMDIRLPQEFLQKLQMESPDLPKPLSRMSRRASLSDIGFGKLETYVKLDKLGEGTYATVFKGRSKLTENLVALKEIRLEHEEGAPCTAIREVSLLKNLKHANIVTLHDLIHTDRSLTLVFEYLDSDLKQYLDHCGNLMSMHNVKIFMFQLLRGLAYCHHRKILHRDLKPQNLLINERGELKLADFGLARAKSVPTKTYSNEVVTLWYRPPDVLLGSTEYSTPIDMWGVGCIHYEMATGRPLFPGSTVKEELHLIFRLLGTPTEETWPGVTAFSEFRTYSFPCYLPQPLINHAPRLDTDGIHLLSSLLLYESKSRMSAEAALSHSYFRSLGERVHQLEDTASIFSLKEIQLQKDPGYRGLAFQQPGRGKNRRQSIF
# RIPK4 (human) = RIPK4 (human) (UniProt P57078)
# DMPK (human) = DMPK (human) (UniProt Q09013)
# CSNK1G2 (human) = CSNK1G2 (human) (UniProt P78368)
# MYO3A (human) = MYO3A (human) (UniProt Q8NEV4)
# IGF1R (human) = IGF1R (human) (UniProt P08069)
# LIMK2 (human) = LIMK2 (human) (UniProt P53671)
# Chain of LIMK2 (human) (P53671 whole entry, looked up): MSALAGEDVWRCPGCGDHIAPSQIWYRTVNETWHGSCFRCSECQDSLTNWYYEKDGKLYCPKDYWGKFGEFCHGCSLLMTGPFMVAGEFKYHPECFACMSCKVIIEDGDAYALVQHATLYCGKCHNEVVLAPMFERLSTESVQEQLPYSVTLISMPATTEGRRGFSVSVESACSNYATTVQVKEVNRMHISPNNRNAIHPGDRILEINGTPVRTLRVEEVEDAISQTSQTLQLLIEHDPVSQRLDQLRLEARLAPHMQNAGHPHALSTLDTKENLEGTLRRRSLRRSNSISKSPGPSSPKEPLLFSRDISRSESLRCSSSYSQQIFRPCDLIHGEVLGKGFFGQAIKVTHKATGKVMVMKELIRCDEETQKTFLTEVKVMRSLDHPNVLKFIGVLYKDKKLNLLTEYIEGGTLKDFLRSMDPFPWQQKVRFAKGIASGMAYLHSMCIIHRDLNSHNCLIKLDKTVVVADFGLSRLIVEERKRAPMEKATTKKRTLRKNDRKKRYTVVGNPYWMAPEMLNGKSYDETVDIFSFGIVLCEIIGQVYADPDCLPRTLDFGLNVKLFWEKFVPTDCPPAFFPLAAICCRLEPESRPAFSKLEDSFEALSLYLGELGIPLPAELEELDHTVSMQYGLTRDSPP
# ZAP70 (human) = ZAP70 (human) (UniProt P43403)
# TESK1 (human) = TESK1 (human) (UniProt Q15569)
# PKN2 (human) = PKN2 (human) (UniProt Q16513)
# AURKB (human) = AURKB (human) (UniProt Q96GD4)
# Chain of AURKB (human) (Q96GD4 whole entry, looked up): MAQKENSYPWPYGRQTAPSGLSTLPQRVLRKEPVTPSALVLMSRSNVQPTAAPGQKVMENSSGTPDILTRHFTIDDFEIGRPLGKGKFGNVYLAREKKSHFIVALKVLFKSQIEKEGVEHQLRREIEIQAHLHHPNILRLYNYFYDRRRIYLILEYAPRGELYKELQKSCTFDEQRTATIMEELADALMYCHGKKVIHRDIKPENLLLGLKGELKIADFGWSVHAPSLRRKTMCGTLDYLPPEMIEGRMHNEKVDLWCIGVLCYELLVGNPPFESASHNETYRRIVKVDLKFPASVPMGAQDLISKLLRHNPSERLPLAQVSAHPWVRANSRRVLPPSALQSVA
# MAP4K5 (human) = MAP4K5 (human) (UniProt Q9Y4K4)
# CAMKK2 (human) = CAMKK2 (human) (UniProt Q96RR4)
# Chain of CAMKK2 (human) (Q96RR4 whole entry, looked up): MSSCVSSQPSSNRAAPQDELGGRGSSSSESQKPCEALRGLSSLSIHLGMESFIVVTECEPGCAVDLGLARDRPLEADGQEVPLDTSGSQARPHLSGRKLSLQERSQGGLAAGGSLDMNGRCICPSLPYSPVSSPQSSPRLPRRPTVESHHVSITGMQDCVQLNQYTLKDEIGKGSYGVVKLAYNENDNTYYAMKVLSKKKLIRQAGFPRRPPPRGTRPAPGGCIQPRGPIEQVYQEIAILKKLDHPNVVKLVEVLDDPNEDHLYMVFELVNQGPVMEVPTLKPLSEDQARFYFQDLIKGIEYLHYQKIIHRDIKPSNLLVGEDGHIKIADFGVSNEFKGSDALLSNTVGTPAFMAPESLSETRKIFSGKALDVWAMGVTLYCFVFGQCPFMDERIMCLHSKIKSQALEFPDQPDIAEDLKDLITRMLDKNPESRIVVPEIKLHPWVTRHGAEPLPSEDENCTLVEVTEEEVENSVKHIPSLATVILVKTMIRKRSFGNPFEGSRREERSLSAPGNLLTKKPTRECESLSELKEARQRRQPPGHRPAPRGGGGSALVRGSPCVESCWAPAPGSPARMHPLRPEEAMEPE
# DYRK1B (human) = DYRK1B (human) (UniProt Q9Y463)
# PRKAA2 (human) = PRKAA2 (human) (UniProt P54646)
# [3] = system: FLT3 (human), P36888 [D835Y]
# CAMK1G (human) = CAMK1G (human) (UniProt Q96NX5)
# Chain of CAMK1G (human) (Q96NX5 whole entry, looked up): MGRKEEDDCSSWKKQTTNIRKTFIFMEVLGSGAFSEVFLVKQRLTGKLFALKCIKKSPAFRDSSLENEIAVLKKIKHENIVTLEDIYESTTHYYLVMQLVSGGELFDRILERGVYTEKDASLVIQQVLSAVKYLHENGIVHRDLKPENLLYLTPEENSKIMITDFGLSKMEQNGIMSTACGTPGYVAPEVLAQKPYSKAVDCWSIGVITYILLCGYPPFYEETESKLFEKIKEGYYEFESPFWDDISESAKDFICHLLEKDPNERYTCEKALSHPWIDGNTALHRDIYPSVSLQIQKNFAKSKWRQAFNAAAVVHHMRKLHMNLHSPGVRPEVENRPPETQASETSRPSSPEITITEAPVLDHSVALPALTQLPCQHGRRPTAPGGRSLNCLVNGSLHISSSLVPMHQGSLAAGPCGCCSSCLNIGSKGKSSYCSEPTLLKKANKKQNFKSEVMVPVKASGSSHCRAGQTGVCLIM
# CDK16 (human) = CDK16 (human) (UniProt Q00536)
# Chain of CDK16 (human) (Q00536 whole entry, looked up): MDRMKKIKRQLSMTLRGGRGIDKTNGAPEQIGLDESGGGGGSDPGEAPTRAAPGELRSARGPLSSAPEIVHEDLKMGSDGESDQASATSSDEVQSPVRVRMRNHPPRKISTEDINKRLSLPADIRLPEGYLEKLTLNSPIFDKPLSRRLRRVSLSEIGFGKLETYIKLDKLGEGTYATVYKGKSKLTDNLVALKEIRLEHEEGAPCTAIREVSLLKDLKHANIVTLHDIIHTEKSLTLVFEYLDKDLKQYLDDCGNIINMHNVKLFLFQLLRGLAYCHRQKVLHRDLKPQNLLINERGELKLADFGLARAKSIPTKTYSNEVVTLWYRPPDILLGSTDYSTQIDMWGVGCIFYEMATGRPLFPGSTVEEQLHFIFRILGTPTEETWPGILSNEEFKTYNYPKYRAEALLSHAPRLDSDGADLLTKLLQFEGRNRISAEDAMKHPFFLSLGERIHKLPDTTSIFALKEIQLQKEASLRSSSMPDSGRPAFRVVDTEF
# MAP4K1 (human) = MAP4K1 (human) (UniProt Q92918)
# RET (human) = RET (human) (UniProt P07949)
# Chain of MAPK11 (human) (Q15759 whole entry, looked up): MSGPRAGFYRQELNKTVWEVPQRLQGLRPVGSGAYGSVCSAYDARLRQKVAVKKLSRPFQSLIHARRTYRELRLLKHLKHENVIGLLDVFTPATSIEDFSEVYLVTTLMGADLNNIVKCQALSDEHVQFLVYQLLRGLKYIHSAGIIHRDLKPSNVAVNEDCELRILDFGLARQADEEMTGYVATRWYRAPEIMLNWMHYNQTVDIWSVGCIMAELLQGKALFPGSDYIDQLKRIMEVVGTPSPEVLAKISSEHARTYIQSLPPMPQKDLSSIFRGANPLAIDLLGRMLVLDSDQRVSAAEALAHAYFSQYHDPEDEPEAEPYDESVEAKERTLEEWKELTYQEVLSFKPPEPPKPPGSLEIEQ
smiles,measurement,setting,value
COc1cc(N2CCC(N3CCN(C)CC3)CC2)ccc1Nc1ncc(Cl)c(Nc2ccccc2S(=O)(=O)C(C)C)n1,"kinase still bound, per cent of control",CDC42BPB (human),25%
same,"kinase still bound, per cent of control",[1],9.6%
same,"kinase still bound, per cent of control",BLK (human),0.1%
same,"kinase still bound, per cent of control",MAPK11 (human),40%
same,"kinase still bound, per cent of control",RPS6KA3 KD1 (human),0.55%
same,"kinase still bound, per cent of control",MELK (human),0.95%
same,"kinase still bound, per cent of control",MAP2K4 (human),1.6%
same,"kinase still bound, per cent of control",BTK (human),0%
same,"kinase still bound, per cent of control",CDC42BPA (human),40%
same,"kinase still bound, per cent of control",HIPK1 (human),40%
same,"kinase still bound, per cent of control",[2],0%
same,"kinase still bound, per cent of control",FGFR2 (human),0.95%
same,"kinase still bound, per cent of control",EPHA6 (human),3.1%
same,"kinase still bound, per cent of control",CLK3 (human),3%
same,"kinase still bound, per cent of control",ACVR1 (human),0%
same,"kinase still bound, per cent of control",SRPK3 (human),1.7%
same,"kinase still bound, per cent of control",NEK1 (human),40%
same,"kinase still bound, per cent of control",EPHB2 (human),33%
same,"kinase still bound, per cent of control",AURKA (human),0%
same,"kinase still bound, per cent of control",PRKCD (human),28%
same,"kinase still bound, per cent of control",CDK8 (human),40%
same,"kinase still bound, per cent of control",ABL2 (human),1.4%
same,"kinase still bound, per cent of control",CDK18 (human),40%
same,"kinase still bound, per cent of control",RIPK4 (human),40%
same,"kinase still bound, per cent of control",DMPK (human),1.8%
same,"kinase still bound, per cent of control",CSNK1G2 (human),40%
same,"kinase still bound, per cent of control",MYO3A (human),0.25%
same,"kinase still bound, per cent of control",IGF1R (human),0%
same,"kinase still bound, per cent of control",LIMK2 (human),6.5%
same,"kinase still bound, per cent of control",ZAP70 (human),10%
same,"kinase still bound, per cent of control",TESK1 (human),40%
same,"kinase still bound, per cent of control",PKN2 (human),3.2%
same,"kinase still bound, per cent of control",AURKB (human),1%
same,"kinase still bound, per cent of control",MAP4K5 (human),0.3%
same,"kinase still bound, per cent of control",CAMKK2 (human),0.1%
same,"kinase still bound, per cent of control",DYRK1B (human),40%
same,"kinase still bound, per cent of control",PRKAA2 (human),0.15%
CCN1CCN(Cc2ccc(NC(=O)c3ccc(C)c(Oc4ccnc5[nH]ccc45)c3)cc2C(F)(F)F)CC1,"kinase still bound, per cent of control",[1],14%
same,"kinase still bound, per cent of control",BLK (human),0.45%
same,"kinase still bound, per cent of control",MAPK11 (human),0%
same,"kinase still bound, per cent of control",[3],14%
same,"kinase still bound, per cent of control",CAMK1G (human),20%
same,"kinase still bound, per cent of control",HIPK1 (human),6.2%
same,"kinase still bound, per cent of control",CDK16 (human),11%
same,"kinase still bound, per cent of control",[2],8.4%
same,"kinase still bound, per cent of control",FGFR2 (human),1.4%
same,"kinase still bound, per cent of control",MAP4K1 (human),1.6%
same,"kinase still bound, per cent of control",EPHB2 (human),11%
same,"kinase still bound, per cent of control",RET (human),0%
same,"kinase still bound, per cent of control",CDK8 (human),3.9%
same,"kinase still bound, per cent of control",ABL2 (human),0.6%
same,"kinase still bound, per cent of control",CDK18 (human),1.8%
same,"kinase still bound, per cent of control",MYO3A (human),6.4%
same,"kinase still bound, per cent of control",CAMKK2 (human),28%
CCN1CCN(Cc2ccc(NC(=O)c3ccc(C)c(/C=C/c4cnc(Nc5cc(N6CCNCC6)nc(C)n5)cn4)c3)cc2C(F)(F)F)CC1,"kinase still bound, per cent of control",CDC42BPB (human),100%
same,"kinase still bound, per cent of control",[1],5.4%
same,"kinase still bound, per cent of control",BLK (human),0.1%
same,"kinase still bound, per cent of control",MAPK11 (human),3.2%
same,"kinase still bound, per cent of control",[3],3.2%
same,"kinase still bound, per cent of control",RPS6KA3 KD1 (human),43%
same,"kinase still bound, per cent of control",MELK (human),25%
same,"kinase still bound, per cent of control",MAP2K4 (human),100%
same,"kinase still bound, per cent of control",BTK (human),0.2%
same,"kinase still bound, per cent of control",CDC42BPA (human),100%
same,"kinase still bound, per cent of control",CAMK1G (human),99%
same,"kinase still bound, per cent of control",HIPK1 (human),34%
same,"kinase still bound, per cent of control",CDK16 (human),60%
same,"kinase still bound, per cent of control",[2],17%
same,"kinase still bound, per cent of control",FGFR2 (human),10%
same,"kinase still bound, per cent of control",EPHA6 (human),51%
same,"kinase still bound, per cent of control",CLK3 (human),100%
same,"kinase still bound, per cent of control",MAP4K1 (human),0%
same,"kinase still bound, per cent of control",ACVR1 (human),100%
same,"kinase still bound, per cent of control",SRPK3 (human),82%
same,"kinase still bound, per cent of control",NEK1 (human),91%
same,"kinase still bound, per cent of control",EPHB2 (human),5.7%
same,"kinase still bound, per cent of control",AURKA (human),78%
same,"kinase still bound, per cent of control",PRKCD (human),100%
same,"kinase still bound, per cent of control",RET (human),0.15%
same,"kinase still bound, per cent of control",CDK8 (human),3.6%
same,"kinase still bound, per cent of control",ABL2 (human),0.7%
same,"kinase still bound, per cent of control",CDK18 (human),81%
same,"kinase still bound, per cent of control",RIPK4 (human),17%
same,"kinase still bound, per cent of control",DMPK (human),100%
same,"kinase still bound, per cent of control",CSNK1G2 (human),96%
same,"kinase still bound, per cent of control",MYO3A (human),60%
same,"kinase still bound, per cent of control",IGF1R (human),87%
same,"kinase still bound, per cent of control",LIMK2 (human),9.6%
same,"kinase still bound, per cent of control",ZAP70 (human),15%
same,"kinase still bound, per cent of control",TESK1 (human),23%
same,"kinase still bound, per cent of control",PKN2 (human),100%
same,"kinase still bound, per cent of control",AURKB (human),100%
same,"kinase still bound, per cent of control",MAP4K5 (human),0.55%
same,"kinase still bound, per cent of control",CAMKK2 (human),95%
same,"kinase still bound, per cent of control",DYRK1B (human),76%
same,"kinase still bound, per cent of control",PRKAA2 (human),14%
CCOc1cc(N2CCC(N3CCCCC3)CC2)ccc1Nc1nc(Nc2ccccc2S(=O)(=O)C(C)C)c2cn[nH]c2n1,"kinase still bound, per cent of control",CDC42BPB (human),100%
same,"kinase still bound, per cent of control",[1],100%
same,"kinase still bound, per cent of control",BLK (human),100%
same,"kinase still bound, per cent of control",MAPK11 (human),100%
same,"kinase still bound, per cent of control",[3],59%
same,"kinase still bound, per cent of control",RPS6KA3 KD1 (human),2%
same,"kinase still bound, per cent of control",MELK (human),92%
same,"kinase still bound, per cent of control",MAP2K4 (human),8.2%
same,"kinase still bound, per cent of control",BTK (human),32%
same,"kinase still bound, per cent of control",CDC42BPA (human),100%
same,"kinase still bound, per cent of control",CAMK1G (human),26%
same,"kinase still bound, per cent of control",HIPK1 (human),82%
same,"kinase still bound, per cent of control",CDK16 (human),98%
same,"kinase still bound, per cent of control",[2],20%
same,"kinase still bound, per cent of control",FGFR2 (human),100%
same,"kinase still bound, per cent of control",EPHA6 (human),100%
same,"kinase still bound, per cent of control",CLK3 (human),50%
same,"kinase still bound, per cent of control",MAP4K1 (human),54%
same,"kinase still bound, per cent of control",ACVR1 (human),60%
same,"kinase still bound, per cent of control",SRPK3 (human),100%
same,"kinase still bound, per cent of control",NEK1 (human),100%
same,"kinase still bound, per cent of control",EPHB2 (human),100%
same,"kinase still bound, per cent of control",AURKA (human),100%
same,"kinase still bound, per cent of control",PRKCD (human),100%
same,"kinase still bound, per cent of control",RET (human),100%
same,"kinase still bound, per cent of control",CDK8 (human),100%
same,"kinase still bound, per cent of control",ABL2 (human),97%
same,"kinase still bound, per cent of control",CDK18 (human),100%
same,"kinase still bound, per cent of control",RIPK4 (human),76%
same,"kinase still bound, per cent of control",DMPK (human),70%
same,"kinase still bound, per cent of control",CSNK1G2 (human),46%
same,"kinase still bound, per cent of control",MYO3A (human),38%
same,"kinase still bound, per cent of control",IGF1R (human),0.25%
same,"kinase still bound, per cent of control",LIMK2 (human),51%
same,"kinase still bound, per cent of control",ZAP70 (human),32%
same,"kinase still bound, per cent of control",TESK1 (human),100%
same,"kinase still bound, per cent of control",PKN2 (human),100%
same,"kinase still bound, per cent of control",AURKB (human),100%
same,"kinase still bound, per cent of control",MAP4K5 (human),58%
same,"kinase still bound, per cent of control",CAMKK2 (human),46%
same,"kinase still bound, per cent of control",DYRK1B (human),42%
same,"kinase still bound, per cent of control",PRKAA2 (human),100%
